The test system of assay [1] is Staphylococcus aureus MW2 (mecA+). In words: IC50 (growth, competition assay). Particulars: cefoxitin: subinhibitory. The essentials: (§1)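 Two fluorescent S. aureus MW2 strains, one carrying and one lacking the resistance gene, were pre-induced, mixed 1:1 and grown unshaken in LB in 1536-well plates for 20 h at 37 °C and 90% humidity with a subinhibitory drug dose set each day. Compounds were tested on five- or nine-point 2-fold gradients in two dye-swapped replicates. DsRed (540/590) and GFP (485/520) signals were scaled per plate between the medians of single-strain controls, and No Treatment was then set to 0.5. For each strain, IC50 was taken as the dose that halved the No Treatment signal, or else the maximal signal.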

Assay [2] relates to Staphylococcus aureus MW2 delta-mecA (mecA-). Briefly: IC50 (growth, competition assay). To be noted: cefoxitin: subinhibitory. The method in brief:
as §1

Where a name gives a salt, the structure may show the parent alone.

In general, IC50 refers to the point on the concentration scale where inhibition reaches its midpoint. A high value points to a need for much substance. Take `O=C(O[C@@H]1Cc2c(O)cc(O)cc2O[C@@H]1c1ccc(O)c(O)c1)c1cc(O)c(O)c(O)c1` [EPICATECHIN MONOGALLATE]: the IC50 in assay [1] (fluorescent label: DsRed) was 83.7 µM; in assay [1] (fluorescent label: GFP), 140 µM; in assay [2] (fluorescent label: DsRed), 22.9 µM; in assay [2] (fluorescent label: GFP) it was 12.2 µM.
On the same counts, the results for `CCCCCCCCCCCCCCCC[n+]1ccccc1` [CEPACOL] are less than 9.85 µM, less than 9.85 µM, less than 9.85 µM and less than 9.85 µM.
As to `C[C@H](CCC(=O)O)[C@H]1CC[C@H]2[C@@H]3[C@H](O)C[C@@H]4C[C@H](O)CC[C@]4(C)[C@H]3CC[C@]12C` [Chenodeoxycholic acid], the IC50 in assay [1] (fluorescent label: DsRed) is 54 µM; in assay [1] (fluorescent label: GFP) it was 91.4 µM; in assay [2] (fluorescent label: DsRed), 14.8 µM; in assay [2] (fluorescent label: GFP) it was 7.91 µM.
On the same counts, the results for `CN(C)C(=O)C(CCN1CCC(O)(c2ccc(Cl)cc2)CC1)(c1ccccc1)c1ccccc1` [Loperamide hydrochloride] are 103 µM, 109 µM, 31.4 µM and 39 µM.
Consider `COc1c(N2C[C@@H]3CCCN[C@@H]3C2)c(F)cc2c(=O)c(C(=O)O)cn(C3CC3)c12` [AVELOX], for which the IC50 in assay [1] (fluorescent label: DsRed), in assay [1] (fluorescent label: GFP), in assay [2] (fluorescent label: DsRed) and in assay [2] (fluorescent label: GFP) was less than 9.85 µM throughout.
Regarding `CC[C@H]1OC(=O)C[C@@H](O)[C@H](C)[C@@H](O[C@@H]2O[C@H](C)[C@@H](O)[C@H](N(C)C)[C@H]2O)[C@@H](CCN2C[C@H](C)C[C@H](C)C2)C[C@@H](C)C(=O)/C=C/C(C)=C/[C@@H]1CO[C@@H]1O[C@H](C)[C@@H](O)[C@@H](OC)[C@H]1OC` [MICOTIL], the IC50 is 18.8 µM in assay [1] (fluorescent label: DsRed), 28.3 µM in assay [1] (fluorescent label: GFP), 13.4 µM in assay [2] (fluorescent label: DsRed) and less than 9.85 µM in assay [2] (fluorescent label: GFP).
For `CCCCCCCCCCCCCCCC[N+](C)(C)C` [CETAB], in that order: less than 9.85 µM, less than 9.85 µM, less than 9.85 µM and less than 9.85 µM.
For `CC[C@@]1([C@H]2O[C@H]([C@H]3O[C@@](O)(CO)[C@H](C)C[C@@H]3C)C[C@H]2C)CC[C@H]([C@@]2(C)CC[C@]3(C[C@H](O)[C@@H](C)[C@@H]([C@H](C)[C@H](OC)[C@@H](C)C(=O)O)O3)O2)O1` [RUMENSIN], in that order: less than 9.85 µM, less than 9.85 µM, less than 9.85 µM and 12.5 µM.
`CC1=C2C(=CO[C@H](C)[C@H]2C)C(O)=C(C(=O)O)C1=O` [CITRININ]: the IC50 worked out at 29.8 µM in assay [1] (fluorescent label: DsRed), 47.6 µM in assay [1] (fluorescent label: GFP), 26.2 µM in assay [2] (fluorescent label: DsRed) and 29.4 µM in assay [2] (fluorescent label: GFP).
Turning to `CN1CCN(CCCN2c3ccccc3Sc3ccc(Cl)cc32)CC1` [Prochlorperazine dimaleate], the IC50 in assay [1] (fluorescent label: DsRed) turned out to be 56.2 µM; in assay [1] (fluorescent label: GFP) it was 54.5 µM; in assay [2] (fluorescent label: DsRed), 21.5 µM; in assay [2] (fluorescent label: GFP), 18 µM.
Take `CCn1cc(C(=O)O)c(=O)c2cc(F)c(N3CCN(C)CC3)cc21` [Pefloxacin Mesylate Dihydrate]: the IC50 in assay [1] (fluorescent label: DsRed), in assay [1] (fluorescent label: GFP), in assay [2] (fluorescent label: DsRed) and in assay [2] (fluorescent label: GFP) was less than 9.85 µM throughout.
`Cn1nnnc1SCC1=C(C(=O)O)N2C(=O)[C@@H](NC(=O)[C@H](O)c3ccccc3)[C@H]2SC1` [CEFAMANDOLE SODIUM]: the IC50 was 53.2 µM in assay [1] (fluorescent label: DsRed), 52.5 µM in assay [1] (fluorescent label: GFP), less than 9.85 µM in assay [2] (fluorescent label: DsRed) and less than 9.85 µM in assay [2] (fluorescent label: GFP).
In the case of `C=CC1=C(C(=O)O)N2C(=O)[C@@H](NC(=O)/C(=N\O)c3csc(N)n3)[C@H]2SC1` [Cefdinir (Omnicef)], the IC50 was 4.17 µM in assay [1] (fluorescent label: DsRed), 3.6 µM in assay [1] (fluorescent label: GFP), less than 0.498 µM in assay [2] (fluorescent label: DsRed) and less than 0.498 µM in assay [2] (fluorescent label: GFP).
For the compound `N[C@@H]1CCCN(c2c(/C=C3\SC(=O)NC3=O)cccc2-c2ccccc2)C1` [AZD1208], the IC50 in assay [1] (fluorescent label: DsRed) came to 111 µM; in assay [1] (fluorescent label: GFP) it was 101 µM; in assay [2] (fluorescent label: DsRed), 26.7 µM; in assay [2] (fluorescent label: GFP), 22.8 µM.
On the same counts, the results for `CN1CCN(c2c(F)cc3c(=O)c(C(=O)O)cn4c3c2OCN4C)CC1` [Marbofloxacin] are 6.41 µM, 6.33 µM, 2.09 µM and 1.19 µM.
On the same counts, the results for `CO[C@H]1/C=C/O[C@@]2(C)Oc3c(C)c(O)c4c(O)c(c5c(nc6cc(C)ccn65)c4c3C2=O)NC(=O)/C(C)=C\C=C\[C@H](C)[C@H](O)[C@@H](C)[C@@H](O)[C@@H](C)[C@H](OC(C)=O)[C@@H]1C` [XIFAXAN] are less than 9.85 µM, less than 9.85 µM, less than 9.85 µM and less than 9.85 µM.
On the same counts, the results for `CCN(CC)C(=S)SSC(=S)N(CC)CC` [Tetraethylthiuram disulfide] are 33.4 µM, 36.1 µM, less than 9.85 µM and less than 9.85 µM.
For the compound `CNCc1ccc(C)c(NC(=O)c2ccc(Nc3nc(-c4ccccc4)c4ccccc4n3)cc2)c1`, the IC50 in assay [1] (fluorescent label: DsRed) is 15.9 µM; in assay [1] (fluorescent label: GFP) it was 14.5 µM; in assay [2] (fluorescent label: DsRed), less than 9.85 µM; in assay [2] (fluorescent label: GFP), less than 9.85 µM.
With `CCN(CC)CCOc1ccc(Nc2ncc3cc(-c4c(Cl)cccc4Cl)c(=O)n(C)c3n2)cc1`, the IC50 in assay [1] (fluorescent label: DsRed) came out at 85.1 µM; in assay [1] (fluorescent label: GFP), 106 µM; in assay [2] (fluorescent label: DsRed), 30.6 µM; in assay [2] (fluorescent label: GFP) it was 36.5 µM.
On the same counts, the results for `COc1ccc2c(c1)OC[C@@H](Cc1ccc(OC)c(OC)c1)[C@H]2O` [TETRAHYDROSAPPANONE A TRIMETHYL ETHER] are greater than 150 µM, greater than 150 µM, greater than 150 µM and greater than 150 µM.
For `CC(C)(C)CC(C)(C)c1ccc(OCCOCC[N+](C)(C)Cc2ccccc2)cc1` [PHEMERIDE], in that order: less than 9.85 µM, less than 9.85 µM, less than 9.85 µM and less than 9.85 µM.
On the same counts, the results for `CC(C)n1cnc2c(NCCc3ccc(O)cc3)nc(-c3csc4ccccc34)nc21` [StemRegenin 1] are 25.6 µM, 29.9 µM, 15.1 µM and 11.2 µM.
`CC(=O)OCC1=C(C(=O)O)N2C(=O)[C@@H](NC(=O)CSc3ccncc3)[C@H]2SC1` [CEFADYL]: the IC50 in assay [1] (fluorescent label: DsRed), in assay [1] (fluorescent label: GFP), in assay [2] (fluorescent label: DsRed) and in assay [2] (fluorescent label: GFP) was less than 9.85 µM throughout.
For `Cc1cc(Nc2nc(N[C@@H](C)c3ccc(F)cc3)c(C#N)cc2F)n[nH]1` [AZ 960], the IC50 in assay [1] (fluorescent label: DsRed) stood at 110 µM; in assay [1] (fluorescent label: GFP) it was 112 µM; in assay [2] (fluorescent label: DsRed), 2.4 µM; in assay [2] (fluorescent label: GFP), 1.67 µM.
In the case of `CCOC(=O)[C@H](CCc1ccccc1)N[C@@H](C)C(=O)N1Cc2ccccc2C[C@H]1C(=O)O` [ACCUPRIL], the IC50 in assay [1] (fluorescent label: DsRed), in assay [1] (fluorescent label: GFP), in assay [2] (fluorescent label: DsRed) and in assay [2] (fluorescent label: GFP) was greater than 150 µM throughout.
For `O=C(Nc1ccc(C(=O)O)c(O)c1)c1ccccc1` [THERAPAS], the IC50 is 29.8 µM in assay [1] (fluorescent label: DsRed), 29.3 µM in assay [1] (fluorescent label: GFP), 17.6 µM in assay [2] (fluorescent label: DsRed) and 11.8 µM in assay [2] (fluorescent label: GFP).
On the same counts, the results for `CC[C@@H](C(=O)[C@@H](C)[C@@H](O)[C@H](C)CCc1ccc(C)c(O)c1C(=O)O)[C@H]1O[C@](CC)([C@H]2CC[C@](O)(CC)[C@H](C)O2)C[C@@H]1C` [BOVOTEC] are less than 9.85 µM, less than 9.85 µM, less than 9.85 µM and less than 9.85 µM.
On the same counts, the results for `Cc1cc(N)c2ccccc2[n+]1CCCCCCCCCC[n+]1c(C)cc(N)c2ccccc21` [Dequalinium chloride hydrate] are less than 9.85 µM, less than 9.85 µM, less than 9.85 µM and less than 9.85 µM.
For `N#CC(c1ccc(Cl)cc1)c1c(Cl)cc(-n2ncc(=O)[nH]c2=O)cc1Cl` (stereo unspecified) [CLINACOX], in that order: 15.2 µM, 23 µM, less than 9.85 µM and less than 9.85 µM.

Values taken from the supplement of paper PMC7695840.
